Results on 7 compounds are retold here after PMC7365685 (ACS chemical biology, 2019).

A word on the Ki: it is the equilibrium dissociation constant of an inhibitor or competing ligand from its target. A high value points to lower affinity.

Experiment [1] concerns the target T1, dopamine D2 receptor (D2R; D2SR; SNAP-D2SR) (Homo sapiens, UniProt P14416). The experiment is described as follows: [3H]spiperone competition binding.
Experiment [2] addresses T1, dopamine D2 receptor (D2R; D2SR; SNAP-D2SR). As to the kind of experiment: inhibition of forskolin-stimulated cAMP. The format is cell-based. The settings on record: functional affinity (dissociation constant of coupled receptor); partial agonist.
The target is the same in experiment [3]. As to the kind of experiment: inhibition of forskolin-stimulated cAMP. It counts as cell-based. The conditions noted are these: functional affinity; receptor alkylation with phenoxybenzamine.
Experiment [4] addresses T2, I122^3.40A D2R (Homo sapiens, UniProt P14416, I122A).
T2 sequence (P14416 1-443 I122A): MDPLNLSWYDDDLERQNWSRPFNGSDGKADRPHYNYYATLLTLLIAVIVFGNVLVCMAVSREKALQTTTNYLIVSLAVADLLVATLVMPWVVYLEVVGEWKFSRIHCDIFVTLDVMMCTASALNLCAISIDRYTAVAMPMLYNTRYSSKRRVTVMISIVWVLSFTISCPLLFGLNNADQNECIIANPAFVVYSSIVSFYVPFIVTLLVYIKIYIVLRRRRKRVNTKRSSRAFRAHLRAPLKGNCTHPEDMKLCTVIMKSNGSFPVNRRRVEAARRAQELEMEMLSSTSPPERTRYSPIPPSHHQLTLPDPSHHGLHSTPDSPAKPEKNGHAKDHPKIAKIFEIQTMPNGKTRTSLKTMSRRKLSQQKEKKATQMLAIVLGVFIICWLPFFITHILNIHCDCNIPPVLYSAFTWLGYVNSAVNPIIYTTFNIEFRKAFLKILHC
The experiment is described as follows: biochemical. Further details: species or system FlpIn CHO.

Experiment [5] concerns the target T3, V115^3.33A D2R (Homo sapiens, UniProt P14416, V115A).
T3 sequence (P14416 1-443 V115A): T2 sequence (P14416 1-443 I122A) with V115A, A122I
The experiment is described as follows: biochemical.

Experiment [6] deals with E181^ECL2A D2R (Homo sapiens, UniProt P14416, E181A). As to the kind of experiment: biochemical.
Sequence of E181^ECL2A D2R (P14416 whole entry E181A): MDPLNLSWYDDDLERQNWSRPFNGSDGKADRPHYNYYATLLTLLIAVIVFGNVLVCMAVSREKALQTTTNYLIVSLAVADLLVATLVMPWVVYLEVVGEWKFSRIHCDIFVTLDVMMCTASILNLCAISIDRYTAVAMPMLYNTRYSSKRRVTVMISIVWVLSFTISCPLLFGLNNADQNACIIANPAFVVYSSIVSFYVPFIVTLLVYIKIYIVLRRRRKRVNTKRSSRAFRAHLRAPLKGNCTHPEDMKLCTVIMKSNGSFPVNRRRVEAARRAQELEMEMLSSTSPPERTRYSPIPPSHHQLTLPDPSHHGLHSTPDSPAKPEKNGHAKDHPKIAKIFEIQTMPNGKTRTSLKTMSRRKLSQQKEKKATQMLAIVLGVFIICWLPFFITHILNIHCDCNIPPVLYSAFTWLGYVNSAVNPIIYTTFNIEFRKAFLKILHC
Experiment [7] concerns the target T4, T119^3.37A D2R (Homo sapiens, UniProt P14416, T119A).
T4 sequence (P14416 1-443 T119A): T2 sequence (P14416 1-443 I122A) with T119A, A122I
The experiment is described as follows: biochemical.

Experiment [8] deals with N186^ECL2A D2R (Homo sapiens, UniProt P14416, N186A). The experiment is described as follows: biochemical. Also on record: species or system FlpIn CHO.
Sequence of N186^ECL2A D2R (P14416 whole entry N186A): as the sequence (P14416 whole entry E181A) above, with A181E, N186A counted along it
The target in experiment [9] is T5, C118^3.36A D2R (Homo sapiens, UniProt P14416, C118A).
T5 sequence (P14416 1-443 C118A): T2 sequence (P14416 1-443 I122A) with C118A, A122I
As to the kind of experiment: biochemical.

Experiment [10] addresses S197^5.46A D2R (Homo sapiens, UniProt P14416, S197A). As to the kind of experiment: biochemical.
In experiment [11] the target is dopamine D2 receptor (D2R; D2SR; SNAP-D2SR) (Homo sapiens, UniProt P14416, F110A). As to the kind of experiment: biochemical.
Sequence of dopamine D2 receptor (D2R; D2SR; SNAP-D2SR) (Homo sapiens, UniProt P14416, F110A) (P14416 1-414 isoform P14416-2 F110A): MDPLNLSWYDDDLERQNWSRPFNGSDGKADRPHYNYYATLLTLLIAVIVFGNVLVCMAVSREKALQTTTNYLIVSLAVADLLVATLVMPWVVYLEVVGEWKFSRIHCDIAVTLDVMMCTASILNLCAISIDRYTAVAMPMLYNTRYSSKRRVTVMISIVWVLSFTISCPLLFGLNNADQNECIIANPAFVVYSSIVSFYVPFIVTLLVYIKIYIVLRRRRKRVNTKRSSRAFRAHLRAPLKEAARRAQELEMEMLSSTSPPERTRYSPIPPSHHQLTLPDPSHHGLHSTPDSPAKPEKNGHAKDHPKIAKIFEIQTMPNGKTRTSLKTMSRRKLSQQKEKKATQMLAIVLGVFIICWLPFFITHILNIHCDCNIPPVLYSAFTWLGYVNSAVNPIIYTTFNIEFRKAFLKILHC
Experiment [12] has as its target dopamine D2 receptor (D2R; D2SR; SNAP-D2SR) (Homo sapiens, UniProt P14416, S193A). The experiment is described as follows: biochemical.
The target in experiment [13] is I183^ECL2A D2R (Homo sapiens, UniProt P14416, I183A). As to the kind of experiment: biochemical.
Sequence of I183^ECL2A D2R (P14416 whole entry I183A): as the sequence (P14416 whole entry E181A) above, with A181E, I183A counted along it
For experiment [14], the target named is L174^ECL2A D2R (Homo sapiens, UniProt P14416, L174A). The experiment is described as follows: biochemical. Further details: species or system FlpIn CHO.
Sequence of L174^ECL2A D2R (P14416 whole entry L174A): as the sequence (P14416 whole entry E181A) above, with L174A, A181E counted along it
Experiment [15] concerns the target dopamine D2 receptor (D2R; D2SR; SNAP-D2SR) (Homo sapiens, UniProt P14416, F202A). The experiment is described as follows: biochemical.

Changes are numbered by the printed parent chain.

T1 sequence (P14416 1-414 isoform P14416-2): as the sequence (P14416 1-414 isoform P14416-2 F110A) above, with A110F counted along it
Sequence of S197^5.46A D2R (P14416 whole entry S197A): as the sequence (P14416 whole entry E181A) above, with A181E, S197A counted along it
Sequence of dopamine D2 receptor (D2R; D2SR; SNAP-D2SR) (Homo sapiens, UniProt P14416, S193A) (P14416 1-414 isoform P14416-2 S193A): as the sequence (P14416 1-414 isoform P14416-2 F110A) above, with A110F, S193A counted along it
Sequence of dopamine D2 receptor (D2R; D2SR; SNAP-D2SR) (Homo sapiens, UniProt P14416, F202A) (P14416 1-414 isoform P14416-2 F202A): as the sequence (P14416 1-414 isoform P14416-2 F110A) above, with A110F, F202A counted along it

`Clc1cccc(N2CCNCC2)c1Cl` [compound 1, DCPP] gave a Ki in [1] of 0.575 µM. The “cAMP (BRET Biosensor) / pKA” value in experiment [2] is reported as 6.49 ± 0.18.

In the case of `CCCN1CCN(c2cccc(Cl)c2Cl)CC1` [compound 2], the affinity in experiment [1], expressed as Ki, was 0.0182 µM.

`CCCCN1CCN(c2cccc(Cl)c2Cl)CC1` [compound 3]: affinity in [1] was put at a Ki of 0.00501 µM.

On to `COCCCCN1CCN(c2cccc(Cl)c2Cl)CC1` [compound 4], for which the Ki in experiment [1] was 0.02 µM.

In turn, `CCCCN1CCN(c2ccccc2OC)CC1` [compound 12] gave a Ki in experiment [1] of 0.0933 µM.

With `NCCc1ccc(O)c(O)c1` [dopamine], the pKA entry in [3] was “determine the functional affinity and efficacy of dopamine and ropinirole”.

As for `CCCN(CCC)CCc1cccc2c1CC(=O)N2` [ropinirole], the Ki in experiment [1] is 6.61 µM; in experiment [4], 7.76 µM; in experiment [5], 18.6 µM; in experiment [6], 3.02 µM; in [7], 4.27 µM; in experiment [8] it was 9.77 µM. Moreover, the Ki in experiment [9] was 3.72 µM; in experiment [10] it was 8.51 µM; in experiment [11] it was 42.7 µM; in experiment [12] it was 100 µM; in [13], 3.16 µM; in [14], 2.24 µM. Moreover, the Ki in [15] is 12.3 µM. In addition, in experiment [3], the pKA result is “determine the functional affinity and efficacy of dopamine and ropinirole”.
